This note sets out measurements from patent US20260176283A1, “IONIZABLE LIPIDS WITH LINEAR HEAD GROUPS” (Beam Therapeutics Inc., priority 2023, published 2026).

One series has as its system PCSK9 target site. Nature of the series: In vivo base editing with ABE mRNA and sgRNA targeting PCSK9. Details: species or system Balb/c mice. Conditions: dose 0.03 MPK (mg total RNA/kg) IV, formulation ratio 47.5:40:2.5:10, liver, 4 days after dosing. How it is done:
Lipid nanoparticle components are dissolved in 100% ethanol at specified lipid component molar ratios. mRNA encoding an adenine base editor and a chemically-modified sgRNA is dissolved at a mass ratio of 1:1 in 10 mM citrate, 100 mM NaCl, pH 4.0, resulting in a concentration of NA cargo of approximately 0.22 mg/mL. LNP preparations are formulated with molar ratios of either 50% Ionizable Lipid: 38.5% Cholesterol: 1.5% PEG2000-DMG: 10% DSPC or 47.5% Ionizable Lipid: 40% Cholesterol: 2.5% PEG2000-DMG: 10% DSPC both at a total lipid to NA molar ratio of 6.
LNP preparations are formed by microfluidic mixing of the lipid and NA solutions using a Precision Nanosystems NanoAssemblr Ignite Instrument, according to the manufacturer's protocol. A 3:1 ratio of aqueous to organic solvent is maintained during mixing using differential flow rates. After mixing, LNP preparations are collected, diluted in PBS (approximately 2:1 v/v), and further buffer exchange is conducted using dialysis in PBS at 4° C. for 8 to 24 hours against a 20 kDa filter. After this initial dialysis, each individual LNP preparation is characterized via dynamic light scattering (DLS) to measure size and polydispersity. pKa of a subpopulation of LNP preparations is measured via TNS assay. After dialysis, LNP preparations are sterile filtered using 0.22 micron sterile filter and stored at 4° C. for further use. In some embodiments, LNP preparations may be concentrated using 100 kDa Amicon filters per manufacturer's protocol.
Male Balb/C mice aged approximately 8-12 weeks are used in the experiments described herein. Each mouse is temporarily restrained, and LNP preparations are administered IV via tail vein injection. Age-matched mice are also used to administer vehicle (1×PBS) via tail vein injection as a control. Four to six days post-dose, tissues including liver, spleen, heart and muscle are collected (only liver and muscle (quardracept) are reported). Genomic DNA is isolated and fragmented and adapter-ligated using the Nextera DNA Flex Library Prep Kit (Illumina) using the 96-well plate Nextera indexing primers (Illumina), according to the manufacturer's instructions. Library size and concentration is confirmed by Fragment Analyzer (Agilent) and sent to Novogene for whole genome sequencing using an Illumina HiSeq.
For base editing, mRNA encoding an adenine base editor (ABE) and a guide RNA (sgRNA) targeting PCSK9 at 1:1 (mass ratio) are coencapsulated in LNP preparations as described herein. LNP preparations are administrated into Balb/c mice through tail vein injections at concentration of 0.03 mg total RNA/kg. […] Base editing is determined by performing targeted deep sequencing analysis at the PCSK9 target site using extracted genomic DNA.

Series [1] is described as follows: LNP characterization of base editor LNP preparations (DLS diameter, PDI, encapsulation efficiency). In kind it is physicochemical. Conditions: Table E LNPs, formulation ratio 47.5:40:2.5:10, ABE mRNA/PCSK9 sgRNA. Summed up:
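Lipid mix in ethanol and base-editor mRNA plus modified sgRNA (1:1 by mass, pH 4.0 citrate) were microfluidically mixed at 3:1 aqueous:organic, lipid:NA molar ratio 6, then dialysed against PBS at 4° C for 8–24 h. Diameter and PDI were measured by DLS in PBS; encapsulation was derived from unlysed versus lysed LNPs by Qubit RNA quantitation.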

For `CC/C=C\CCCC(CCC/C=C\CC)OC(=O)CCCCCC(=O)OCC(COC(=O)CCCCCC(=O)OC(CCC/C=C\CC)CCC/C=C\CC)COC(=O)OCCCN(CC)CC` [Compound (29), O1-[2-[3-(diethylamino)propoxycarbonyloxymethyl]-3-[7-[(Z)-1-[(Z)-hept-4-enyl]oct-5-enoxy]-7-oxo-heptanoyl]oxy-propyl] O7-[(Z)-1-[(Z)-hept-4-enyl]oct-5-enyl] heptanedioate], in the series with PCSK9 target site, the “Liver Editing A->G (%)” value is 7.53%. In addition, in series [1], the “Diameter (nm)” value is listed as 65.7 nm, the “EE (%)” value stood at 96.55% and the “PDI (%)” value was 11.9%.

In the case of `CC/C=C\CCCC(CCC/C=C\CC)OC(=O)CCCCCC(=O)OCC(COC(=O)CCCCCC(=O)OC(CCC/C=C\CC)CCC/C=C\CC)COC(=O)NCCCn1ccnc1` [Compound (32), 1-{2-[({[3-(1H-imidazol-1-yl)propyl]carbamoyl}oxy)methyl]-3-({7-oxo-7-[(3Z,12Z)-pentadeca-3,12-dien-8-yloxy]heptanoyl}oxy)propyl} 7-(3Z,12Z)-pentadeca-3,12-dien-8-yl heptanedioate], the “Liver Editing A->G (%)” value in the series on PCSK9 target site is 0.06%. For the same compound, in series [1], the “Diameter (nm)” value is given as 81.94 nm and the “EE (%)” value turned out to be 87.5%.

As for `CC/C=C\CCCC(CCC/C=C\CC)OC(=O)CCCCCC(=O)OCC(COC(=O)CCCCCC(=O)OC(CCC/C=C\CC)CCC/C=C\CC)COC(=O)NCCN1CCN(C)CC1` [Compound (31), 01-[2-[[7-[(Z)-1-[(Z)-hept-4-enyl]oct-5-enoxy]-7-oxo-heptanoyl]oxymethyl]-3-[2-(4-methylpiperazin-1-yl)ethylcarbamoyloxy]propyl] O7-[(Z)-1-[(Z)-hept-4-enyl]oct-5-enyl] heptanedioate], the “Liver Editing A->G (%)” value with PCSK9 target site turned out to be 0.02%. In series [1], the “Diameter (nm)” value was 103.5 nm and the “EE (%)” value amounted to 93.42%.

For `CC/C=C\CCCC(CCC/C=C\CC)OC(=O)CCCCCC(=O)OCC(COC(=O)CCCCCC(=O)OC(CCC/C=C\CC)CCC/C=C\CC)COC(=O)OCCCN1CCCC1` [Compound (30), 1-[3-({7-Oxo-7-[(3Z,12Z)-pentadeca-3,12-dien-8-yloxy]heptanoyl}oxy)-2-[({[3-(pyrrolidin-1-yl)propoxy]carbonyl}oxy)methyl]propyl] 7-(3Z,12Z)-pentadeca-3,12-dien-8-yl heptanedioate], in the series on PCSK9 target site, the “Liver Editing A->G (%)” value is 1.53%. Further, in series [1], the “Diameter (nm)” value is 67.06 nm and the “EE (%)” value was 97.15%.
